How the values were obtained:
Assay in all cases: relative viability (nuclei count vs DMSO), 5 days (fraction); higher = more cells survive
[1] = compound: COc1cc2nccc(Oc3ccc(NC(=O)C4(C(=O)Nc5ccc(F)cc5)CC4)cc3)c2cc1OC [Cabozantinib] + C[C@]1(O)C[C@@H](c2nc(-c3ccc4ccc(-c5ccccc5)nc4c3)c3c(N)nccn32)C1 [Linsitinib] (partner 1 µM)
Outline: (§1)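 Dosing by pin tool came one day after lung cancer cell lines were seeded in 1536-well plates, using either one drug or a fixed anchor-drug dose plus five library-drug doses (not always all listed) in √10 steps. After 5 days, nuclei were counted on 4× images. Relative viability is treated-well nuclei count divided by vehicle-well nuclei count, and values are medians of duplicate plates.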

Kobe2602 + Trametinib = compound: C1=CC(=CC=C1NC(=S)NNC2=C(C=C(C=C2[N+](=O)[O-])C(F)(F)F)[N+](=O)[O-])F [Kobe2602] + CC(=O)Nc1cccc(-n2c(=O)n(C3CC3)c(=O)c3c(Nc4ccc(I)cc4F)n(C)c(=O)c(C)c32)c1 [Trametinib] (partner 0.02 µM)
Outline: as §1

Zosuquidar + Foretinib = compound: O[C@@H](COc1cccc2ncccc12)CN1CCN([C@@H]2c3ccccc3[C@@H]3[C@H](c4ccccc42)C3(F)F)CC1 [Zosuquidar] + COc1cc2c(Oc3ccc(NC(=O)C4(C(=O)Nc5ccc(F)cc5)CC4)cc3F)ccnc2cc1OCCCN1CCOCC1 [Foretinib] (partner 0.25 µM)
Outline: as §1

Kobe2602 + Pictilisib = compound: C1=CC(=CC=C1NC(=S)NNC2=C(C=C(C=C2[N+](=O)[O-])C(F)(F)F)[N+](=O)[O-])F [Kobe2602] + CS(=O)(=O)N1CCN(Cc2cc3nc(-c4cccc5[nH]ncc45)nc(N4CCOCC4)c3s2)CC1 [Pictilisib] (partner 1 µM)
Outline: as §1

UMC-11
relative viability ([1]; first compound 0.02 µM): 1.12
relative viability ([1]; first compound 0.06325 µM): 1.04
relative viability ([1]; first compound 0.2 µM): 1.03
relative viability ([1]; first compound 0.6325 µM): 0.98
relative viability ([1]; first compound 2 µM): 1.05
relative viability (Kobe2602 + Trametinib; first compound 0.2 µM): 0.716
relative viability (Kobe2602 + Trametinib; first compound 0.6325 µM): 0.683
relative viability (Kobe2602 + Trametinib; first compound 2 µM): 0.751
relative viability (Kobe2602 + Trametinib; first compound 6.325 µM): 0.747
relative viability (Kobe2602 + Trametinib; first compound 20 µM): 0.668
relative viability (Zosuquidar + Foretinib; first compound 0.01 µM): 1.07
relative viability (Zosuquidar + Foretinib; first compound 0.03162 µM): 1.01
relative viability (Zosuquidar + Foretinib; first compound 0.1 µM): 1.19
relative viability (Zosuquidar + Foretinib; first compound 0.3162 µM): 1.12
relative viability (Zosuquidar + Foretinib; first compound 1 µM): 0.987
relative viability (Kobe2602 + Pictilisib; first compound 0.2 µM): 0.865
relative viability (Kobe2602 + Pictilisib; first compound 0.6325 µM): 0.863
relative viability (Kobe2602 + Pictilisib; first compound 2 µM): 0.847
relative viability (Kobe2602 + Pictilisib; first compound 6.325 µM): 0.778
relative viability (Kobe2602 + Pictilisib; first compound 20 µM): 0.868

Source: the supplement of paper PMC10307832
